Reference: patent publication US20160346249A1 (priority 2012, published 2016)
Marks after values point to notes of the source that are not given here.

Key:
[1] = test system: Salmonella typhimurium and Escherichia coli tester strains; test: Bacterial reverse mutation assay (Ames); type: cell-based; settings: up to 5000 μg/plate, with and without S9
[2] = Anesthetized dog intravenous cardiovascular study; type: in vivo
Protocol: Whole blood samples were collected via a cannulated femoral vein at 0, 10, 20, and 29 minutes (timed from the start of each dose administration).
A separate group of 4 dogs was infused with vehicle only (30-60 mL over 90 minutes) for comparison. […] Whole blood samples were collected for determination of peak plasma concentrations (see Section 5.3.3) following infusion of each dose.

Male rat fertility study = test: Male rat fertility study
Protocol: Physical signs, body weight, and food consumption were recorded periodically. Males were housed for up to 10 nights 1:1 with untreated females following approximately 10 weeks of treatment. Mating was confirmed by daily examination of females for the presence of a vaginal copulatory plug or sperm in a vaginal lavage. The day of observing a seminal plug and/or sperm was considered GD 0. Females were euthanized on GD 15, 16, or 17 and the uterus of each female rat was examined to determine pregnancy status. Corpora lutea per female were counted. Uterine implantations were counted, and each was classified as a live fetus, dead fetus, or a resorption. At termination, the left cauda epididymis from males were weighed, and frozen. Subsequently, these tissues were prepared and analyzed for sperm number. At necropsy, a sperm suspension from the mid-region of the left vas deferens of each male was prepared and evaluated for percent motile sperm (from ≧150 cells per male).

human recombinant MAO-A = molecular target: T1, human recombinant MAO-A (Homo sapiens, UniProt P21397); test: Metabolism by recombinant MAO-A; type: in vitro ADME
T1 construct: purchased BD Biosciences, Woburn, Mass
T1 sequence (P21397 1-527): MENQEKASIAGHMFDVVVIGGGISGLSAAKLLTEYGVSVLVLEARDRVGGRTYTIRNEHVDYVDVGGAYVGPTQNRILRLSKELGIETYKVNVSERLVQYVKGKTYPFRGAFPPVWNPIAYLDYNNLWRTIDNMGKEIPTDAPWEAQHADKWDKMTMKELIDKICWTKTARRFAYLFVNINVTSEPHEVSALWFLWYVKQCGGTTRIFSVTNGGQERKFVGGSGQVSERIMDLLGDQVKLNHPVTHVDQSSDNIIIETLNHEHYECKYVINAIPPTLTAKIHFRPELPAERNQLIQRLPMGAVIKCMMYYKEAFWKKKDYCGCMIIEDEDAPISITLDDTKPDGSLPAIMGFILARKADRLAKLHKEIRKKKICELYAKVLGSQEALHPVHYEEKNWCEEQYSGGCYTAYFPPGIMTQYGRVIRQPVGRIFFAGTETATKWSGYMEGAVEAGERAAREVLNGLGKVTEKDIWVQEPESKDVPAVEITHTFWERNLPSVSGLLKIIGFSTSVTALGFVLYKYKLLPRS
Protocol: Incubation systems (ca. 0.2 mL) of human recombinant MAO-A (1.0 mg/mL) and MAO-B (1.0 mg/mL) (BD Biosciences, Woburn, Mass.) were prepared in triplicated 0.1 M potassium phosphate buffer (pH 7.4) (BD Biosciences, Woburn, Mass.). […] The negative samples were prepared as described above, with the exception that instead of HLM, HLmito, or recombinant enzymes, water was added to the incubation mixture.

Row | SMILES | bacterial reverse mutation assay outcome [1] | hemolysis in derived plasma fractions ([2]; IV infusion 2-29 mg/kg cumulative) | change in BF ([2]; top dose) [%] | change in HR ([2]; top dose) | change in PR interval vs baseline ([2]; top dose) [%] | change in QRS interval vs baseline ([2]; top dose) | change in QTC interval vs baseline ([2]; top dose) | change in femoral vascular resistance ([2]; top dose) | decrease in sperm count/g cauda epididymis (Male rat fertility study; 13 mg/kg/day) [%] | decreased mean body weight gain (Male rat fertility study; 13 mg/kg/day) [%] | decreases in fecundity and fertility indices (Male rat fertility study; 13 mg/kg/day) [%] | decrease in percent motile sperm (Male rat fertility study; 39 mg/kg/day) [%] | decreased mean body weight gain (Male rat fertility study; 39 mg/kg/day) [%] | decreased sperm count/g cauda epididymis (Male rat fertility study; 39 mg/kg/day) [%] | decreases in fecundity and fertility indices (Male rat fertility study; 39 mg/kg/day) [%] | decreased mean food consumption (Male rat fertility study; 39 mg/kg/day, first week) [%] | mean body weight loss (Male rat fertility study; 39 mg/kg/day, initial week) [g] | NOEL general and reproductive toxicity (Male rat fertility study; male, Crl:CD(SD) IGS BR, rat, in vivo, 14 weeks) [mg/kg/day] | MAO-A mediation of formation (human recombinant MAO-A; human recombinant MAO-A) | EB-10101 formation rate (mean ± SD) (human recombinant MAO-A; recombinant MAO-A 1 mg/mL, EB-1010 1 μM, 30 min, underestimated (substrate limited))
1 | Clc1ccc([C@]23CNC[C@H]2C3)cc1Cl [amitifadine, (+)-1-(3,4-dichlorophenyl)-3-azabicyclo[3.1.0]hexane] | negative in the bacterial reverse mutation assay | Dose-related hemolysis was apparent | −57 | +10% | −9 | +2% | +2% | +354% | −18 | 7 | −9 | −33 | 9 | −44 | −9 | −60 | -24 | 4 |  | 
2 | O=C1NCC2(c3ccc(Cl)c(Cl)c3)CC12 (centres unmarked) [EB-10101, 5-(3,4-dichloro-phenyl)-3-aza-bicyclo[3.1.0]hexan-2-one] |  |  |  |  |  |  |  |  |  |  |  |  |  |  |  |  |  |  | MAO-A mediated | 7.0 ± 2.7^b pmol/min/mg protein
